This is an account of results in patent US20170037028A1 (BAYER PHARMA AKTIENGESELLSCHAFT, priority 2013, published 2017).

This assay concerns the target T1, GLUT1 (Homo sapiens, UniProt P11166).
T1 sequence (P11166 1-492): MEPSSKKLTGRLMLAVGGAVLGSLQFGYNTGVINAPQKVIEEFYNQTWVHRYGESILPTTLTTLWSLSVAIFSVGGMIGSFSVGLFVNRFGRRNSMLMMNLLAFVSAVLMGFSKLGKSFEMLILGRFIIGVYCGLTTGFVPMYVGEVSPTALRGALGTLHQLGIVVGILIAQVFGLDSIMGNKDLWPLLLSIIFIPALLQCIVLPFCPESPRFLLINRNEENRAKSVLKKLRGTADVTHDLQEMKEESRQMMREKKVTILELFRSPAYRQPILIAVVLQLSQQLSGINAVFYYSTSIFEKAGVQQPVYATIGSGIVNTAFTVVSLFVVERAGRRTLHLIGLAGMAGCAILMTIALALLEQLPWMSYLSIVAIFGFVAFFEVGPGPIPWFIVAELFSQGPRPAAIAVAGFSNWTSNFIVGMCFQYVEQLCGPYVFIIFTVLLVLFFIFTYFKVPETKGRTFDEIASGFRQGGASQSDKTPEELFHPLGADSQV
Kind of assay: Indirect measurement of GLUT1 activity by quantification of intracellular ATP levels (glucose induced ATP increase). The following applies: read-out: IC50 regarding glucose induced ATP increase (GLUT1 inhibition). The class given is cell-based. Further details: endogenous in cells; host or cells: DLD1 or CHO-K1. The method, boiled down:
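Intracellular ATP was measured by CellTiter-Glo luminescence as an indirect readout of transport: glucose-driven for GLUT1, fructose-driven for GLUT2. DLD1 or CHO-K1 cells were used alongside an oxidative phosphorylation inhibitor. Beforehand, cells were held overnight in glucose-free 1% FCS medium to deplete ATP.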
What is called IC50 is the point on the concentration scale where inhibition reaches its midpoint. As to `COCc1ccc(Cn2nc(C(F)(F)F)c(NC(=O)c3cc(C(N)=O)nc4cccc(F)c34)c2C)cc1` [Example 402, 5-fluoro-N^4-{1-[4-(methoxymethyl)benzyl]-5-methyl-3-(trifluoromethyl)-1H-pyrazol-4-yl}quinoline-2,4-dicarboxamide], the IC50 was determined as 6.7 nM. Under `Cc1c(NC(=O)c2cc(C(F)(F)F)nc3ccc(Br)cc23)c(C(F)(F)F)nn1Cc1ccncc1` [Example 1365] stands 167 nM. Under `Cc1cc(C(=O)Nc2c(C)nn(Cc3ccc(F)cc3)c2C)c2cccc(Br)c2n1` [Example 53, 8-bromo-N-[1-(4-fluorobenzyl)-3,5-dimethyl-1H-pyrazol-4-yl]-2-methylquinoline-4-carboxamide] stands 52.4 nM; under `Cc1nn(C[C@@H]2CCC(=O)N2)c(C)c1NC(=O)c1cc(C(F)(F)F)nc2ccc(Br)cc12` [Example 1266], 2490 nM; under `Cc1nn(CC2CNC(=O)O2)c(C)c1NC(=O)c1cc(C(F)(F)F)nc2ccc(Br)cc12` (stereo not shown) [Example 1206], 451 nM.

Regarding `Cc1nn(Cc2ccc(F)c(F)c2)c(C)c1NC(=O)c1cc(C(F)(F)F)nc2cccc(F)c12` [Example 173, N-[1-(3,4-difluorobenzyl)-3,5-dimethyl-1H-pyrazol-4-yl]-5-fluoro-2-(trifluoromethyl)quinoline-4-carboxamide], the IC50 is 65.2 nM. Under `Cc1cc(Cn2nc(C)c(NC(=O)c3cc(C(F)(F)F)nc4ccc(Br)cc34)c2C)no1` [Example 1505] stands 323 nM; under `COc1cc(C(=O)Nc2c(C)nn(Cc3ccccc3F)c2C)c2ccccc2n1` [Example 77, N-[1-(2-fluorobenzyl)-3,5-dimethyl-1H-pyrazol-4-yl]-2-methoxyquinoline-4-carboxamide], 204 nM. The figure for `COc1ccc(CNC(=O)c2ccc(Cn3nc(C)c(NC(=O)c4cc(C(F)(F)F)nc5ccc(Br)cc45)c3C)cc2)cc1` [Example 1229] is 999 nM. Under `Cc1c(NC(=O)c2cc(C(N)=O)nc3cc(F)ccc23)c(C(F)(F)F)nn1Cc1cc(C2CC2)on1` [Example 1550] stands 34.8 nM. As to `COc1cc(C(=O)Nc2c(C)nn(Cc3ccc(F)cc3F)c2C)c2ccccc2n1` [Example 17, N-[1-(2,4-difluorobenzyl)-3,5-dimethyl-1H-pyrazol-4-yl]-2-methoxyquinoline-4-carboxamide], the IC50 worked out at 12.2 nM. The figure for `Cc1c(NC(=O)c2cc(C(N)=O)nc3ccc(Br)cc23)c(C(F)(F)F)nn1Cc1ccc(S(C)(=O)=O)cc1` [Example 1439] is 1.9 nM; for `CCS(=O)(=O)N1CCC(Cn2nc(C(F)(F)F)c(NC(=O)c3cc(C(N)=O)nc4ccccc34)c2C)CC1` [Example 1546] it is 33.7 nM; for `Cc1ccc(CNC(=O)c2ccc(Cn3nc(C)c(NC(=O)c4cc(C(F)(F)F)nc5ccc(Br)cc45)c3C)cc2)cc1` [Example 1108] it is 52.5 nM. Under `CNC(=O)c1nn(Cc2ccc(F)cc2)c(C)c1NC(=O)c1cc(C(N)=O)nc2ccccc12` [Example 1231] stands 1040 nM. Under `Cc1nn(Cc2ccccc2OC(F)(F)F)c(C)c1NC(=O)c1cc(C(F)(F)F)nc2ccc(Br)cc12` [Example 83, 6-bromo-N-{3,5-dimethyl-1-[2-(trifluoromethoxy)benzyl]-1H-pyrazol-4-yl}-2-(trifluoromethyl)quinoline-4-carboxamide] stands 250 nM. Consider `Cc1nn(Cc2ccc(F)cc2)c(C)c1NC(=O)c1cc(C(F)(F)F)nc2ccc(-c3ccccc3)cc12` [Example 166, N-[1-(4-fluorobenzyl)-3,5-dimethyl-1H-pyrazol-4-yl]-6-phenyl-2-(trifluoromethyl)quinoline-4-carboxamide], for which the IC50 was found to be 41.1 nM. The figure for `Cc1nn(CC(=O)Nc2cccc(F)c2)c(C)c1NC(=O)c1cc(C(N)=O)nc2ccccc12` [Example 1701] is 165 nM; for `COc1cc(C(=O)Nc2c(C)nn(Cc3cccc(C(F)(F)F)c3)c2C)c2ccccc2n1` [Example 1303] it is 11100 nM; for `Cc1ccc2nc(C)cc(C(=O)Nc3c(C)nn(Cc4ccc(F)c(Cl)c4)c3C)c2c1` [Example 186, N-[1-(3-chloro-4-fluorobenzyl)-3,5-dimethyl-1H-pyrazol-4-yl]-2,6-dimethylquinoline-4-carboxamide] it is 126 nM. Under `COc1cc(C(=O)Nc2c(C)nn(Cc3cccc(C#N)c3)c2C)c2ccccc2n1` [Example 1286] stands 6250 nM. Under `Cc1c(NC(=O)c2cc(C(N)=O)nc3ccccc23)c(C(F)(F)F)nn1Cc1c(F)cccc1F` [Example 1628] stands 15.3 nM. For `Cc1nn(Cc2ccc(F)cc2)c(C)c1NC(=O)c1cc(C(F)(F)F)nc2ccc(F)cc12` [Example 30, 6-fluoro-N-[1-(4-fluorobenzyl)-3,5-dimethyl-1H-pyrazol-4-yl]-2-(trifluoromethyl)quinoline-4-carboxamide], the IC50 is 19.5 nM. The figure for `COc1cccc(Cn2nc(C)c(NC(=O)c3cc(C(F)(F)F)nc4ccc(Br)cc34)c2C)c1` [Example 97, 6-bromo-N-[1-(3-methoxybenzyl)-3,5-dimethyl-1H-pyrazol-4-yl]-2-(trifluoromethyl)quinoline-4-carboxamide] is 354 nM; for `Cc1nn(CC2CCN(C(=O)OC(C)(C)C)CC2)c(C)c1NC(=O)c1cc(C(F)(F)F)nc2ccc(Br)cc12` [Example 1201] it is 428 nM; for `Cc1nn(Cc2ccc(F)c(Cl)c2)c(C)c1NC(=O)c1cc(C(F)(F)F)nc2cc(F)c(F)cc12` [Example 191, N-[1-(3-chloro-4-fluorobenzyl)-3,5-dimethyl-1H-pyrazol-4-yl]-6,7-difluoro-2-(trifluoromethyl)quinoline-4-carboxamide] it is 171 nM. Under `Cc1nn(Cc2ccc(C(=O)NCCc3ccccn3)cc2)c(C)c1NC(=O)c1cc(C(F)(F)F)nc2ccc(Br)cc12` [Example 1139] stands 105 nM. The figure for `Cc1c(NC(=O)c2cc(C(=O)NCCN(C)C)nc3cc(F)ccc23)c(C(F)(F)F)nn1Cc1ccc(C#N)cc1` [Example 1400] is 2610 nM; for `Cc1nn(CC2CCNCC2)c(C)c1NC(=O)c1cc(C(N)=O)nc2ccccc12` [Example 1241] it is 1530 nM; for `COC(=O)N1CCC(Cn2nc(C)c(NC(=O)c3cc(C(F)(F)F)nc4ccc(Br)cc34)c2C)CC1` [Example 1171] it is 195 nM. With `Cc1c(NC(=O)c2cc(C(N)=O)nc3cc(F)c(Cl)cc23)c(C(F)(F)F)nn1Cc1ccccc1C#N` [Example 270, 6-chloro-N^4-[1-(2-cyanobenzyl)-5-methyl-3-(trifluoromethyl)-1H-pyrazol-4-yl]-7-fluoroquinoline-2,4-dicarboxamide], the IC50 was determined as 1.8 nM. Under `CNS(=O)(=O)c1cc(C(=O)Nc2c(C)nn(Cc3ccc(C#N)cc3)c2C)c2ccccc2n1` [Example 1575] stands 37.9 nM. Under `Cc1c(NC(=O)c2cc(C(N)=O)nc3cc(F)ccc23)c(C(F)(F)F)nn1Cc1ccc(C(N)=O)cc1` [Example 369, N^4-[1-(4-carbamoylbenzyl)-5-methyl-3-(trifluoromethyl)-1H-pyrazol-4-yl]-7-fluoroquinoline-2,4-dicarboxamide] stands 12.4 nM; under `COCc1noc(Cn2nc(C)c(NC(=O)c3cc(C(N)=O)nc4ccccc34)c2C)n1` [Example 1508], 107 nM; under `Cc1ccc2nc(C)cc(C(=O)Nc3c(C)nn(Cc4ccc(F)cc4)c3C)c2c1` [Example 62, N-[1-(4-fluorobenzyl)-3,5-dimethyl-1H-pyrazol-4-yl]-2,6-dimethylquinoline-4-carboxamide], 127 nM. For the compound `Cc1c(NC(=O)c2cc(C(N)=O)nc3ccccc23)c(C(F)(F)F)nn1Cc1cccc(C#N)c1` [Example 1579], the IC50 was found to be 23.4 nM. Under `Cc1nn(CCOc2ccc(C#N)cc2)c(C)c1NC(=O)c1cc(C(N)=O)nc2ccccc12` [Example 295, N^4-{1-[2-(4-cyanophenoxy)ethyl]-3,5-dimethyl-1H-pyrazol-4-yl}quinoline-2,4-dicarboxamide] stands 1020 nM; under `COc1cc(C(=O)Nc2c(C)nn(Cc3cc(F)cc(F)c3)c2C)c2ccccc2n1` [Example 1284], 6250 nM; under `Cc1nn(Cc2ccc(C(=O)NCCNC(=O)C3CC3)cc2)c(C)c1NC(=O)c1cc(C(F)(F)F)nc2ccc(Br)cc12` [Example 1098], 41.4 nM. The figure for `Cc1nn(Cc2ccc(F)c(F)c2)c(C)c1NC(=O)c1cc(C(F)(F)F)nc2cc(F)ccc12` [Example 168, N-[1-(3,4-difluorobenzyl)-3,5-dimethyl-1H-pyrazol-4-yl]-7-fluoro-2-(trifluoromethyl)quinoline-4-carboxamide] is 47.8 nM. In the case of `Cc1nn(Cc2cccc(F)c2)c(C)c1NC(=O)c1cc(C(F)(F)F)nc2ccc(Br)cc12` [Example 72, 6-bromo-N-[1-(3-fluorobenzyl)-3,5-dimethyl-1H-pyrazol-4-yl]-2-(trifluoromethyl)quinoline-4-carboxamide], the IC50 was found to be 177 nM.

On to `Cc1nn(Cc2ccc(C(=O)NCCO)cc2)c(C)c1NC(=O)c1cc(C(N)=O)nc2cc(F)ccc12` [Example 1420], for which the IC50 came out at 354 nM. The figure for `Cc1nn(Cc2ncco2)c(C)c1NC(=O)c1cc(C(N)=O)nc2ccccc12` [Example 1504] is 42.4 nM.
